Tested on: clonogenic cells
Assay: Clonogenic test, overall statement
Assay type: cell-based
Conditions: in words
Description: 1—Interaction (Stimulation or Inhibition of Proliferation) With the Generation of Clonogenic Cells (Clonogenic Test)
The test used is that described by Hamburger et al. (Science, 1977; 197, 461-463) and Salmon et al. (New England J. Med., 298, 1321-1327). A cell is considered clonogenic if it has the capacity to proliferate and to give rise to a cell colony. “Human tumor stem cells” are the cells which are the source of the neoplastic cells which constitute a given tumor. These tumor stem cells are responsible for the relapse processes which may be observed after surgical resection of primary tumors and are also responsible for the formation of metastases. […]
The influence of the compounds of formulae (I) and (Ia) on the growth of the cell colonies obtained by culturing, for example, the mammalian tumor lines MCF7 and MXT and the colorectal line HT-29 on the semi-liquid culture medium known as “soft agar” was measured. […]
The tumor cell lines studied are maintained in culture in 25 cm^2 falcon dishes. […] The percentage of live cells is determined after staining with trypan blue. […] After fixing for 24 hours, the formalin is evaporated off and the number of stained cell colonies, thus consisting of metabolically active cells, and whose surface area is greater than 100 μm^2, is determined using an inverted microscope. […]

SMILES: CCN(CC)C(=O)Cn1c(=O)c(-c2ccc(OC)cc2)cc2c(OC)cc(OC)cc21 [CRL8315, N,N-Diethyl-2-[5,7-dimethoxy-3-(4-methoxy-phenyl)-2-oxo-1,2-dihydro-1-quinolinyl]acetamide]
- effect on the average number of clones of clonogenic cells relative to the reference situation: increase

SMILES: CCN(CC)C(=O)CCn1c(=O)c(-c2ccc(OC)cc2)cc2c(OC)cc(OC)cc21 [CRL8283, N,N-Diethyl-3-[5,7-dimethoxy-3-(4-methoxy-phenyl)-2-oxo-1,2-dihydro-1-quinolinyl]propanamide]
- effect on the average number of clones of clonogenic cells relative to the reference situation: reduce

From patent publication US6593342B1, “Pharmaceutical compositions comprising 2-quinolones” (Laboratoire L. Lafon, priority 1998, dated 2003)
